We go through 9 compounds from paper PMC8704661, “A Structural Approach to Anti-Virulence: A Discovery Pipeline” (Microorganisms, 2021).

Data set [1] concerns the target T1, Plx2A (Paenibacillus larvae, UniProt M9V3B7). Put plainly: biochemical.
In data set [2] the target is T1, Plx2A. As to the kind of experiment: biochemical. In kind it is binding.
Data set [3] deals with T1, Plx2A. The settings on record: cited from earlier work.
Data set [4] has as its system model insect cell culture. More on the design: method as in PMID 34564612. Particulars: cited from earlier work.
The test system of data set [5] is P. larvae ERIC I-infected honey bee larva. Further details: method as in PMID 34564612. Particulars: P. larvae ERIC I infection; cited from earlier work.
In the next data set the test system is C3bot1. The settings on record: cited from earlier work.
The test system of the next data set is C3larvin. More on the design: method as in PMID 25477523. Particulars: read-out: Ki (C3larvin mART enzymatic activity); cited from earlier work.
In the next data set the test system is Vis toxin. Further details: method as in PMID 26352925. The settings on record: cited from earlier work.
For a further data set, the system named is Staphylococcus aureus. More on the design: method as in PMID 34740095. The settings on record: cited from earlier work.
The test system of a further data set is Pseudomonas aeruginosa. More on the design: method as in PMID 34740095. Particulars: cited from earlier work.
The test system of the next data set is Escherichia coli. Further details: method as in PMID 34740095. Particulars: cited from earlier work.

SMILES strings stand for the structures. “Also recorded” adds a separate entry of the source.

Broadly, the IC50 is the midpoint of a concentration-inhibition curve. Low readings indicate inhibition by little substance, high ones a need for much substance. The Kd is the constant that tells how readily two partners part at equilibrium. A lower Kd goes with higher affinity. Regarding `O=c1c(O)c(-c2ccc(O)cc2O)oc2cc(O)cc(O)c12` [Morin, 2-(2,4-dihydroxyphenyl)-3,5,7-trihydroxy-4H-chromen-4-one], inhibition on Plx2A [1] was half-maximal at 109 ± 4.8 µM (IC50). For the same compound, on Plx2A [2], the Kd worked out at 32.8 ± 11.7 µM.

Consider `COc1ccc(-c2cc(=O)c3c(O)cc(O)cc3o2)cc1` [Acacetin, 5,7-dihydroxy-2-(4-methoxyphenyl)-4H-chromen-4-one], for which, on Plx2A [3], the “Inhibition of Plx2A GH activity” value is recorded as “strong inhibitors”. Moreover, in data set [4], the “Concentration that protected the cell culture against Plx2A cytotoxicity (prevented bi-nucleated cells)” value was 30 µM and the “Protection of cultured insect cells from Plx2A intoxication” value (“Protection of cultured insect cells” for short) is given as “protected the cultured cells from Plx2A intoxication”.

Take `O=c1cc(-c2ccccc2)oc2cc(O)cc(O)c12` [Chrysin, 5,7-dihydroxy-2-phenyl-4H-chromen-4-one]: inhibition against Plx2A [1] was half-maximal at 49.2 ± 2.5 µM (IC50). For the same compound, at Plx2A [2], the Kd is 40.6 ± 4.7 µM.

As for `COc1cc(-c2cc(=O)c3c(O)c(OC)c(O)cc3o2)ccc1O` [Jaceosidin, 5,7-dihydroxy-2-(4-hydroxy-3-methoxyphenyl)-6-methoxy-4H-chromen-4-one], on Plx2A [1], half-maximal inhibition (IC50) required 73.9 ± 4.7 µM. Also, binding on Plx2A [2] was characterised by a dissociation constant (Kd) of 24.1 ± 2.9 µM.

As to `O=c1cc(-c2ccc(O)c(O)c2)oc2cc(O)cc(O)c12` [Luteolin, 2-(3,4-dihydroxyphenyl)-5,7-dihydroxy-4H-chromen-4-one], the IC50 against Plx2A [1] was 68.1 ± 1.8 µM. On Plx2A [2], this compound gave a Kd of 24 ± 1.5 µM.

In the case of `O=c1cc(-c2ccccc2)oc2cc(O)c(O)c(O)c12` [Baicalein, 5,6,7-trihydroxy-2-phenyl-4H-chromen-4-one], the “Inhibition of Plx2A GH activity” value on Plx2A [3] is on record as “strong inhibitors”. For the same compound, the “Protection of cultured insect cells” value in data set [4] is given as “not Baicalein”.

Regarding `O=c1c(O)c(-c2ccc(O)cc2)oc2cc(O)cc(O)c12` [Kaempferol, 3,5,7-trihydroxy-2-(4-hydroxyphenyl)-4H-chromen-4-one], it took 79.9 ± 6 µM to reach half-maximal inhibition at Plx2A [1] (IC50). Moreover, the Kd at Plx2A [2] was found to be 37.3 ± 3.6 µM.

By Ki is commonly meant the dissociation constant of the complex between target and ligand, obtained from inhibition or displacement. `CS(=O)(=O)NC[C@@H]1CCCN(c2ncnc3[nH]ncc23)C1` [Inhibitor M3, N-{[(3R)-1-{1H-pyrazolo[3,4-d]pyrimidin-4-yl}piperidin-3-yl]methyl}methanesulfon amide] returned an IC50 against Plx2A [1] of 216 ± 22.7 µM. Moreover, the “Protection of honey bee larva / reduction of larval mortality” value in data set [5] is reported as “failed to protect honey bee larva”. Further, the “Inhibition of C3bot1” value in the data set on C3bot1 is “effective inhibitor”. Moreover, at Plx2A [3], the “Inhibition of Plx2A GH activity” value is “potent inhibitor; also recorded: strong inhibitors”. Also, in data set [4], the “Concentration that protected the cell culture against Plx2A cytotoxicity (prevented bi-nucleated cells)” value was 300 µM and the “Protection of cultured insect cells” value was “protected the cultured cells from Plx2A intoxication”. Besides, in the data set on C3larvin, the Ki is 11 µM. Besides, in the data set on Vis toxin, the “Inhibition of Vis toxin” value is listed as “effective inhibitor”.

Turning to `O=c1c(O)c(-c2ccc(O)c(O)c2)oc2cc(O)cc(O)c12` [Quercetin, 2-(3,4-dihydroxyphenyl)-3,5,7-trihydroxy-4H-chromen-4-one], at Plx2A [1], the IC50 is 24.3 ± 0.8 µM, the Ki was 18 ± 2.8 µM and the “Mechanism of inhibition of Plx2A GH activity (Lineweaver-Burk)” value was “non-competitive inhibition; also recorded: non-competitive mechanism”. In the data set with Staphylococcus aureus, the “Antibacterial activity” value is “potent antibacterial activity”. The “Antibacterial activity” value with Pseudomonas aeruginosa is “potent antibacterial activity”. Also, on Plx2A [2], binding was put at a Kd of 19.9 ± 0.4 µM. Besides, the “Antibacterial activity” value with Escherichia coli is “potent antibacterial activity”.
